Target: T1, integrin-linked kinase (ILK) (Homo sapiens, UniProt Q13418)
T1 sequence (Q13418 1-452): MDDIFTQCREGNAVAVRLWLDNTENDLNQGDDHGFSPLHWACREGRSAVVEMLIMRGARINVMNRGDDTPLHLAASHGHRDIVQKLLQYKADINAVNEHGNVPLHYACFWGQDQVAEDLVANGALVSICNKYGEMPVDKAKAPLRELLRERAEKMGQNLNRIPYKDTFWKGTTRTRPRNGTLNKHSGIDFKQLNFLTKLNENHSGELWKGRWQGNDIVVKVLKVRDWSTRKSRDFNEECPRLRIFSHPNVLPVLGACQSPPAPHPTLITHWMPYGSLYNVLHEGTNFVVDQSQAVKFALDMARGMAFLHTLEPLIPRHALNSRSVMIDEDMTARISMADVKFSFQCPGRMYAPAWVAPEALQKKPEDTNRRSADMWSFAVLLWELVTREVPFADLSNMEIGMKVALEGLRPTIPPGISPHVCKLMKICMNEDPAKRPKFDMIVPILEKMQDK
Test: SPR (Biacore S200), ILK immobilized on CM5 chip
Format: binding

| SMILES | Kd |
| --- | --- |
| COc1ccc(N=Nc2c(N)n[nH]c2N)cc1 [ILK-IN-3, reference compound] | 2640 nM |
| Cc1cn(-c2cc(NC(=O)c3ccc(C)c(Nc4nccc(-c5cccnc5)n4)c3)cc(C(F)(F)F)c2)cn1 [d1, Nilotinib] | 6410 nM |
| COc1cc([C@@H]2c3cc4c(cc3[C@@H](O[C@@H]3O[C@@H]5CO[C@@H](c6cccs6)O[C@H]5[C@H](O)[C@H]3O)[C@H]3COC(=O)[C@H]23)OCO4)cc(OC)c1O [d2, Teniposide] | 1790 nM |

Source: article PMC9815933, “Computational Drug Repurposing Approach to Identify Novel Inhibitors of ILK Protein for Treatment of Esophageal Squamous Cell Carcinoma” (Journal of Oncology, 2022)
